Data set [1] in a line: log P by HPLC on a reversed-phase column (C 18), EEC Directive 79/831 Annex V.A8. It counts as physicochemical. As to conditions: 55° C.
The test system of data set [2] is Lucilia cuprina. Briefly: Lucilia cuprina test. It counts as in vivo. As to conditions: 100 ppm, after 2 days, L1 larvae. Here is the method: • Solvent: dimethyl sulphoxide To produce a suitable preparation of active compound, 10 mg of active compound are mixed with 0.5 ml of dimethyl sulphoxide, and the concentrate is diluted with water to the desired concentration. About 20 L1 larvae of the Australian sheep blowfly (Lucilia cuprina) are transferred into a test vessel containing minced horsemeat and the active compound preparation of the desired concentration. After 2 days, the kill in % is determined. 100% means that all the larvae have been killed; 0% means that no larvae have been killed.

For data set [3], the system named is Phaedon cochleariae. The data set can be described thus: Phaedon cochleariae - spray test. It counts as in vivo. As to conditions: 500 g/ha, after 7 days, larvae on Chinese cabbage leaf discs.
Data set [4] relates to Spodoptera frugiperda. Briefly: Spodoptera frugiperda - spray test. It counts as in vivo. As to conditions: 500 g/ha, after 7 days, caterpillars on maize leaf discs.
The test system of data set [5] is Myzus persicae. The data set can be described thus: Myzus persicae spray test (bell pepper plants). It is filed as in vivo. As to conditions: 100 ppm, after 6 days. Here is the method: • Solvent: 14 parts by weight of dimethylformamide • Emulsifier: alkylaryl polyglycol ether
To produce a suitable preparation of active compound, 1 part by weight of active compound is dissolved using the stated parts by weight of solvent and made up with water containing an emulsifier concentration of 1000 ppm until the desired concentration is attained. To produce further test concentrations, the preparation is diluted with emulsifier-containing water. If the addition of ammonium salts or/and penetrants is required, these are each added in a concentration of 1000 ppm to the formulation solution.
Bell pepper plants (Capsicum annuum) severely infested with the green peach aphid (Myzus persicae) are treated by spraying with the active compound preparation in the desired concentration.
After 6 days, the kill in % is determined. 100% means that all of the aphids have been killed; 0% means that none of the aphids have been killed.

In data set [1] (acidic range, pH 2.7, 0.1% aqueous formic acid/acetonitrile), `CCS(=O)(=O)c1c(-c2nc3cc(C(F)(F)F)ccc3n2C)nc2ccccn12` [Example I-10] displayed an LOGP_HCOOH of 2.70. In data set [1] (neutral range, pH 7.8, 0.001 molar aqueous ammonium hydrogencarbonate/acetonitrile), this molecule registered an LOGP_NEUTRAL of 2.64. Moreover, the “efficacy (kill)” value in data set [2] and in data set [5] was 100% each time. Also, the efficacy in data set [3] and in data set [4] was 100% in each case.

Source of the values: patent US10188108B2, “Fused bicyclic heterocycle derivatives as pesticides” (BAYER CROPSCIENCE AKTIENGESELLSCHAFT, priority 2015, dated 2019).
